Results taken from PubChem BioAssay AID2060886 (Molecular Pharmacology Branch, DTP, NCI, 2025).

Test system: 653999-131-R-J2-PDC complex spheroids, growth inhibition
Assay: Anticancer human tumor 653999-131-R-J2-PDC patient-derived lung adenocarcinoma cell line growth inhibition [RAS]
Settings: for IC50: curve of first compound; for viability, T/C: stronger effect = lower value; active means viability on the fitted dose curve at most 10% of control; inactive means the rest
Outline: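 Agents were tested in combination matrices in half-log decrements from a top concentration at or near clinical Cmax (10 microM if undetermined). Targets were multi-cell spheroids of tumour lines plus HUVEC and MSC stromal cells.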

[1] = second compound 0.000949 µM, first compound 0.0316 µM
[2] = second compound 0.000949 µM, first compound 0.1 µM
[3] = second compound 0.000949 µM, first compound 0.316 µM
[4] = second compound 0.000949 µM, first compound 1 µM
[5] = second compound 0.000949 µM, first compound 3.16 µM
[6] = second compound 0.000949 µM, first compound 10 µM
[7] = second compound 0.003 µM, first compound 0.0316 µM
[8] = second compound 0.003 µM, first compound 0.1 µM
[9] = second compound 0.003 µM, first compound 0.316 µM
[10] = second compound 0.003 µM, first compound 1 µM
[11] = second compound 0.003 µM, first compound 3.16 µM
[12] = second compound 0.003 µM, first compound 10 µM
[13] = second compound 0.00949 µM, first compound 0.0316 µM
[14] = second compound 0.00949 µM, first compound 0.1 µM
[15] = second compound 0.00949 µM, first compound 0.316 µM
[16] = second compound 0.00949 µM, first compound 1 µM
[17] = second compound 0.00949 µM, first compound 3.16 µM
[18] = second compound 0.00949 µM, first compound 10 µM
[19] = second compound 0.03 µM, first compound 0.0316 µM
[20] = second compound 0.03 µM, first compound 0.1 µM
[21] = second compound 0.03 µM, first compound 0.316 µM
[22] = second compound 0.03 µM, first compound 1 µM
[23] = second compound 0.03 µM, first compound 3.16 µM
[24] = second compound 0.03 µM, first compound 10 µM
[25] = second compound 0.0949 µM, first compound 0.0316 µM
[26] = second compound 0.0949 µM, first compound 0.1 µM
[27] = second compound 0.0949 µM, first compound 0.316 µM
[28] = second compound 0.0949 µM, first compound 1 µM
[29] = second compound 0.0949 µM, first compound 3.16 µM
[30] = second compound 0.0949 µM, first compound 10 µM
[31] = second compound 0.3 µM, first compound 0.0316 µM
[32] = second compound 0.3 µM, first compound 0.1 µM
[33] = second compound 0.3 µM, first compound 0.316 µM
[34] = second compound 0.3 µM, first compound 1 µM
[35] = second compound 0.3 µM, first compound 3.16 µM
[36] = second compound 0.3 µM, first compound 10 µM
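Further: spheroids exposed to the agents for seven days before the readout.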

C[C@@H](NC(=O)c1ncnc(N)c1Cl)c1ncc(C(=O)Nc2cc(C(F)(F)F)c(Cl)cn2)s1 + CCn1c(-c2cccnc2C(C)OC)c2c3cc(ccc31)N1CCOC(CC(NC(=O)C(C(C)C)N(C)C(=O)C3(F)CCN(C(=O)C#CC(C)(C)N(C)C)CC3)C(=O)N3CCCC(N3)C(=O)OCC(C)(C)C2)C1
> 10 µM: IC50 (second compound 0.000949 µM) | IC50 (second compound 0.003 µM) | IC50 (second compound 0.00949 µM) | IC50 (second compound 0.03 µM) | IC50 (second compound 0.0949 µM) | IC50 (second compound 0.3 µM)
inactive: viability, T/C [1] 95.5% | viability, T/C [2] 123% | viability, T/C [3] 95.5% | viability, T/C [4] 101% | viability, T/C [5] 106% | viability, T/C [6] 83.6% | viability, T/C [7] 105% | viability, T/C [8] 104% | viability, T/C [9] 126% | viability, T/C [10] 104% | viability, T/C [11] 100% | viability, T/C [12] 73.7% | viability, T/C [13] 113% | viability, T/C [14] 115% | viability, T/C [15] 119% | viability, T/C [16] 112% | viability, T/C [17] 108% | viability, T/C [18] 94.8% | viability, T/C [19] 111% | viability, T/C [20] 109% | viability, T/C [21] 107% | viability, T/C [22] 107% | viability, T/C [23] 100% | viability, T/C [24] 95.3% | viability, T/C [25] 113% | viability, T/C [26] 97.3% | viability, T/C [27] 121% | viability, T/C [28] 107% | viability, T/C [29] 121% | viability, T/C [30] 91.5% | viability, T/C [31] 104% | viability, T/C [32] 98.9% | viability, T/C [33] 93.4% | viability, T/C [34] 121% | viability, T/C [35] 101% | viability, T/C [36] 85.9%

CCC(CC)c1cc(NC2CCC(N)C2)n2nccc2n1 (centres undefined) + CCn1c(-c2cccnc2C(C)OC)c2c3cc(ccc31)N1CCOC(CC(NC(=O)C(C(C)C)N(C)C(=O)C3(F)CCN(C(=O)C#CC(C)(C)N(C)C)CC3)C(=O)N3CCCC(N3)C(=O)OCC(C)(C)C2)C1
inactive: viability, T/C [1] 101% | viability, T/C [2] 99.6% | viability, T/C [3] 102% | viability, T/C [4] 98.6% | viability, T/C [5] 15% | viability, T/C [6] 22.1% | viability, T/C [7] 111% | viability, T/C [8] 107% | viability, T/C [9] 106% | viability, T/C [10] 95.9% | viability, T/C [11] 17.7% | viability, T/C [12] 18.7% | viability, T/C [13] 102% | viability, T/C [14] 114% | viability, T/C [15] 106% | viability, T/C [16] 93% | viability, T/C [17] 14.4% | viability, T/C [18] 22.5% | viability, T/C [19] 96% | viability, T/C [20] 107% | viability, T/C [21] 114% | viability, T/C [22] 112% | viability, T/C [23] 17% | viability, T/C [24] 19.1% | viability, T/C [25] 97.5% | viability, T/C [26] 115% | viability, T/C [27] 121% | viability, T/C [28] 88.5% | viability, T/C [29] 12% | viability, T/C [30] 20% | viability, T/C [31] 92.1% | viability, T/C [32] 97.6% | viability, T/C [33] 108% | viability, T/C [34] 92.1% | viability, T/C [35] 13.7% | viability, T/C [36] 20.5%
1.91 µM: IC50 (second compound 0.3 µM)
2.01 µM: IC50 (second compound 0.000949 µM)
1.98 µM: IC50 (second compound 0.003 µM)
1.94 µM: IC50 (second compound 0.00949 µM)
2.09 µM: IC50 (second compound 0.03 µM)
1.84 µM: IC50 (second compound 0.0949 µM)
